How the values were obtained:
[1] = tested on: ovalbumin (OVA)-induced asthma; assay: Mouse model of ovalbumin (OVA)-induced asthma (Penh, eosinophil infiltrate in BALF); type: in vivo; conditions: for decrease of eosinophil infiltration in BAL: three oral doses of 10 mg/kg at 48 h, 24 h, and 1 h prior to assessment
Method: A mouse model of ovalbumin (OVA)-induced asthma was used to screen GSNOR inhibitors for efficacy against methacholine (MCh)-induced bronchoconstriction/airway hyper-responsiveness. This is a widely used and well characterized model that presents with an acute, allergic asthma phenotype with similarities to human asthma. Efficacy of GSNOR inhibitors was assessed using a protocol in which GSNOR inhibitors were administered after OVA sensitization and airway challenge, and prior to challenge with MCh. Bronchoconstriction in response to challenge with increasing doses of MCh was assessed using whole body plethysmography (Penh; Buxco). The amount of eosinophil infiltrate into the bronchoaveolar lavage fluid (BALF) was also determined as a measure of lung inflammation. The effects of GSNOR inhibitors were compared to vehicles and to Combivent (inhaled; IH) as the positive control.
OVA (500 μg/ml) in PBS was mixed with equal volumes of 10% (w/v) aluminum potassium sulfate in distilled water and incubated for 60 min. at room temperature after adjustment to pH 6.5 using 10 N NaOH. After centrifugation at 750×g for 5 min, the OVA/alum pellet was resuspended to the original volume in distilled water. Mice received an intraperitoneal (IP) injection of 100 μg OVA (0.2 mL of 500 μg/mL in normal saline) complexed with alum on day 0. Mice were anesthetized by IP injection of a 0.2-mL mixture of ketamine and xylazine (0.44 and 6.3 mg/mL, respectively) in normal saline and were placed on a board in the supine position. Two hundred fifty micrograms (100 μl of a 2.5 mg/ml) of OVA (on day 8) and 125 μg (50 μl of 2.5 mg/ml) OVA (on days 15, 18, and 21) were placed on the back of the tongue of each animal.
In vivo airway responsiveness to methacholine was measured 24 h after the last OVA challenge in conscious, freely moving, spontaneously breathing mice with whole body plethysmography using a Buxco chamber (Wilmington, N.C.). Mice were challenged with aerosolized saline or increasing doses of methacholine (5, 20, and 50 mg/mL) generated by an ultrasonic nebulizer for 2 min. The degree of bronchoconstriction was expressed as enhanced pause (Penh), a calculated dimensionless value, which correlates with the measurement of airway resistance, impedance, and intrapleural pressure in the same mouse. Penh readings were taken and averaged for 4 min. after each nebulization challenge. Penh is calculated as follows: Penh=[(Te/Tr−1)×(PEF/PIF)], where Te is expiration time, Tr is relaxation time, PEF is peak expiratory flow, and PIF is peak inspiratory flow×0.67 coefficient. The time for the box pressure to change from a maximum to a user-defined percentage of the maximum represents the relaxation time. The Tr measurement begins at the maximum box pressure and ends at 40%.
After measurement of airway hyper-reactivity, the mice were exsanguinated by cardiac puncture, and then BALF was collected from either both lungs or from the right lung after tying off the left lung at the mainstem bronchus. Total BALF cells were counted from a 0.05 mL aliquot, and the remaining fluid was centrifuged at 200×g for 10 min at 4° C. Cell pellets were resuspended in saline containing 10% BSA with smears made on glass slides. Eosinophils were stained for 5 min. with 0.05% aqueous eosin and 5% acetone in distilled water, rinsed with distilled water, and counterstained with 0.07% methylene blue. Alternatively, eosinophils and other leukocytes were stained with DiffQuik.
GSNOR inhibitors were reconstituted in phosphate buffered saline (PBS), pH 7.4, or 0.5% w/v carboxy methylcellulose at concentrations ranging from 0.00005 to 3 mg/mL. GSNOR inhibitors were administered to mice (10 mL/kg) as a single dose or multiple dose either intravenously (IV) or orally via gavage. Dosing was performed from 30 min. to 72 h prior to MCh challenge. Effects of GSNOR inhibitors were compared to vehicle dosed in the same manner.
Combivent was used as the positive control in all studies. […]

[2] = tested on: cigarette smoke-induced COPD; assay: Subchronic (11 day) cigarette smoke exposure COPD model; type: in vivo, mouse; conditions: subchronic 11 day model
Method: Infiltration of inflammatory cells into the bronchoalveolar lavage fluid (BALF) and BALF levels of chemokines involved in inflammation and tissue turnover/repair were measured to assess the influences of GSNOR inhibitors on some of the early events associated with the initiation and progression of COPD. […] In animal models, changes in lung pathology are only evident after extended (several months) duration of exposure to cigarette smoke, thus making chronic models prohibitive as effective screening tools. […] The key roles of inflammation in the initiation and progression of COPD, make these short duration models relevant for initial tests of efficacy of novel therapeutics. Female C57Bl/6 mice (N=10 per group) were exposed to cigarette smoke generated from Marlboro 100 cigarettes without filters. Exposure times were 25 min. on study day 1, 35 min. on study day 2, and 45 min. on study days 3 to 11. GSNOR inhibitors were administered one hour prior to smoke exposure on each day. GSNOR inhibitors were dosed orally at 1 to 10 mg/kg/day for 11 days. […] The effect of GSNOR inhibitors were compared to vehicle treated controls and expressed as percent inhibition of the cigarette smoke induced increases in BALF cell numbers. Roflumilast was used as the positive control for the study and was dosed at 5 mg/kg/day. A group of naïve mice (N=10) was exposed to air and dosed with vehicle as a negative control for the study.

[3] = single oral dose of 10 mg/kg at 24 h prior to assessment

`O=c1[nH]c(-c2ccc(-c3c(C(F)(F)F)oc4cc(O)ccc4c3=O)cc2)no1` [IV-31] was tested, and the “decrease of AUC for Penh” value [1, 3] was 18 % of vehicle control and the “decrease of eosinophil infiltration into BALF” value [1, 3] was 82 % of vehicle control.
For `O=C(O)c1ccc(-c2ccc3cc(O)ccc3c2)c(F)c1` [III-2], the “decrease of eosinophil infiltration in BAL” value (“decrease … in BAL” for short) [1] was 44 % of vehicle control.
For `O=c1c(-c2ccc(-c3nnn[nH]3)cc2)c(C(F)(F)F)oc2cc(O)ccc12` [IV-23], the “decrease of AUC for Penh” value ([1]; single IV dose of 10 mg/kg at 24 h prior to assessment) was 39 % of vehicle control.
In the case of `O=C(O)c1ccc(-c2c(C(F)(F)F)oc3cc(O)ccc3c2=O)c(F)c1` [IV-38], the “decrease … in BAL” value [1] is reported as 36 % of vehicle control, the “inhibition of smoke-induced increase in lymphocytes in BAL” value ([2]; oral 1 mg/kg/day for 11 days) is reported as 62% and the “inhibition of smoke-induced increase in macrophages in BAL” value ([2]; oral 1 mg/kg/day for 11 days) is reported as 44%. The “inhibition of smoke-induced increase in neutrophils in BAL” value ([2]; oral 1 mg/kg/day for 11 days) was 68%, the “inhibition of smoke-induced increase in total cells in BAL” value ([2]; oral 1 mg/kg/day for 11 days) was 53% and the “effects compared with roflumilast” value ([2]; roflumilast 5 mg/kg/day) was “comparable to those of roflumilast”.
With `O=c1c2ccc(O)cc2oc(C(F)(F)F)c1[C@H]1CC[C@H](C(=O)O)CC1` [IV-25] the “decrease of AUC for Penh” value [1, 3] was 43 % of vehicle control, the “decrease of eosinophil infiltration into BALF” value [1, 3] was 42 % of vehicle control and the “decrease … in BAL” value [1] was 12 % of vehicle control. The “inhibition of smoke-induced increase in eosinophils in BALF” value ([2]; oral 10 mg/kg/day for 11 days) was 57%, the “inhibition of smoke-induced increase in lymphocytes in BALF” value ([2]; oral 10 mg/kg/day for 11 days) was 24% and the “inhibition of smoke-induced increase in macrophages in BALF” value ([2]; oral 10 mg/kg/day for 11 days) was 28%. For the same molecule, the “inhibition of smoke-induced increase in neutrophils in BALF” value ([2]; oral 10 mg/kg/day for 11 days) was 25% and the “inhibition of smoke-induced increase in total cells in BALF” value ([2]; oral 10 mg/kg/day for 11 days) was 26%.

Source: patent US20140094465A1, “Compounds as S-Nitrosoglutathione Reductase Inhibitors” (N30 PHARMACEUTICALS, INC., priority 2011, published 2014)
